Experimental findings from publication PMC6021035, “Insights into biological activity of ureidoamides with primaquine and amino acid moieties” (Journal of Enzyme Inhibition and Medicinal Chemistry, 2018) are described below.

Marks after values point to notes of the source that are not given here.

The nature of data set [1]: In vitro haemolytic activity. As to conditions: male, 4% (v/v) fresh human erythrocyte suspension, 4% human erythrocytes, read-out: Haemolysis (%); for hemolysis at 1 h, 50 µg/ml: pH 7, 50 μg/ml; for hemolysis at 1 h, 100 µg/ml: pH 7, 100 μg/ml; for hemolysis at 1 h, 200 µg/ml: pH 7, 200 μg/ml. Type of data set: cell-based. As for the experimental part: Then, 4% (v/v) of fresh human erythrocyte solution (hErc) was prepared using a PBS pH 7.0 solution. A series of diluted compounds from 200 to 50 µg/ml were prepared in a total volume of 1 ml with hErc solution. […] Absorbance of the supernatant (200 µl) was recorded at 540 nm using an iEMS microplate reader. The 0.1% (v/v) solution of Triton X100 served as a positive control (as total lysis of hErc), and intact hErc served as a negative control. […] All tests were performed in triplicate and the results were expressed as haemolysis percentage (mean ± SD). Percentage of haemolysis was calculated using the following equation: haemolysis %=Asample-Anc/Apc-Anc×100 where Asample was absorbance of the tested compound, Anc was absorbance of the negative control (intact hErc) and Apc was absorbance of the positive control treated with 0.1% TritonX100. In statistical calculations, p values below 0.05 were considered significant throughout the test. For comparison of mean values, one-way ANOVA with Dunnet’s post-test was used.

The test system of data set [2] is Staphylococcus aureus ATCC 25213. In words: Minimum biofilm eradication assay. Type of data set: cell-based. As for the experimental part:
(§1) We tested the susceptibility of different bacterial and yeast strains to compounds 5a–f by determining the minimum biofilm eradication concentration (MBEC). The test was performed in a sterile 96-well flat-bottom plastic tissue culture plate (TPP, Switzerland). Each well was filled with 100 µl of bacterial (10^7 CFUs/ml) or yeast (5 × 10^6 CFUs/ml) suspension. When the possibility of inhibition of yeast biofilm formation was tested, the wells were pre-treated with FBS (250 µl per well). Negative controls contained broth only. Positive controls were performed using standard antibacterial and antifungal drugs gentamycin and amphotericin B, respectively. The plates were covered and incubated aerobically for 24 h (bacteria) or 48 h (yeast) at 37 °C. Following the incubation period, each well was aspirated and washed three times with 250 µl of PBS and vigorously shaken in order to remove all non-adherent bacteria/yeast. The remaining attached cells were fixed with methanol (15 min) and the plates were left to dry overnight. The formed biofilm was stained with crystal violet (1%, 5 min). Excess stain was rinsed by placing the plate under running tap water and the plates were left to dry for 24 h. Adherent cells were resolubilized with acetic acid (33%, v/v). The optical density of each well was measured at 570 nm using a Multiscan plate reader. The MBEC value represents the lowest compound dilution at which microorganisms fail to grow.

The subject of data set [3] is Enterococcus faecalis ATCC 29212. The data set is described as follows: Minimum biofilm eradication assay. Type of data set: cell-based. As for the experimental part: as §1
The subject of data set [4] is Staphylococcus aureus ATCC 6538. In words: Minimum biofilm eradication assay. Type of data set: cell-based. As for the experimental part:
as §1

In data set [5] the test system is Escherichia coli ATCC 8739. In words: Minimum biofilm eradication assay. Type of data set: cell-based. As for the experimental part: as §1
The test system of data set [6] is Escherichia coli ATCC 10536. In words: Minimum biofilm eradication assay. Type of data set: cell-based. As for the experimental part:
as §1

Data set [7] concerns Candida krusei ATCC 14243. In words: Minimum biofilm eradication assay. The conditions noted are these: Pichia kudriavzevii, ATCC14243, 48 h, read-out: MBEC. Type of data set: cell-based. As for the experimental part: as §1
Data set [8] relates to Candida albicans ATCC 10231. The data set is described as follows: Minimum biofilm eradication assay. Type of data set: cell-based. The conditions noted are these: ATCC10231, 48 h, read-out: MBEC. As for the experimental part:
as §1

In a further data set the test system is Candida kefyr ATCC 2512. In words: Minimum biofilm eradication assay. Type of data set: cell-based. As to conditions: Kluyveromyces marxianus, ATCC2512, 48 h, read-out: MBEC. As for the experimental part: as §1
Data set [9] deals with Candida parapsylosis ATCC 22019. In words: Minimum biofilm eradication assay. Type of data set: cell-based. As for the experimental part: as §1
The test system of data set [10] is Candida tropicalis ATCC 750. In words: Minimum biofilm eradication assay. Type of data set: cell-based. The conditions noted are these: ATCC750, 48 h, read-out: MBEC. As for the experimental part:
as §1

For data set [11], the system named is Candida albicans ATCC 90028. In words: Minimum biofilm eradication assay. Type of data set: cell-based. The conditions noted are these: ATCC90028, 48 h, read-out: MBEC. As for the experimental part: as §1
Data set [12] relates to Pseudomonas aeruginosa ATCC 27853. The data set is described as follows: Minimum biofilm eradication assay. Type of data set: cell-based. As for the experimental part:
as §1

The test system of data set [13] is Pseudomonas aeruginosa ATCC 9027. In words: Minimum biofilm eradication assay. Type of data set: cell-based. As for the experimental part:
as §1

Data set [14] can be described thus: Inhibition of linoleic acid peroxidation (LP), AAPH-initiated. Set-up: tested at 100 µM. The conditions noted are these: 100 μΜ, 37 °C. As for the experimental part:
To initiate lipid peroxidation, the free radical AAPH was used[10]. The final solution in the UV cuvette consisted of 10 µl sodium linoleate solution (c = 16 mM) and 0.93 ml phosphate buffer pH 7.4 (c = 50 mM). Afterwards, 10 µl of the tested compound solution in DMSO (final concentration 0.1 mM) and 50 µl of AAPH solution (c = 40 mM) were added. The experiment was performed at 37 °C under air. Oxidation of linoleic acid sodium salt was monitored at 234 nm. The assay was repeated at least in triplicate and the standard deviation of absorbance was less than 10% of the mean. Trolox was used under the same experimental conditions as a reference compound.

Data set [15] is described as follows: Interaction with 1,1-diphenyl-2-picrylhydrazyl (DPPH). As to conditions: 100 μΜ. As for the experimental part:
To a solution of DPPH in absolute ethanol, an appropriate volume of the tested compound solution (0.1 mM final concentration) dissolved in DMSO was added. Absorbance was recorded at 517 nm after 20 and 60 min at room temperature (Lambda 20 double beam spectrophotometer, Perkin-Elmer, UK). Experiments were repeated at least in triplicate and the standard deviation of absorbance was less than 10% of the mean[10]. NDGA was used under the same experimental conditions as a reference compound.

As to `COc1cc(NC(C)CCCNC(=O)NC(C(=O)N(C)C(c2ccccc2)c2ccccc2)c2ccccc2)c2ncccc2c1` (centres unmarked) [Compound 5b, N-(diphenylmethyl)-2-[({4-[(6-methoxyquinolin-8-yl)amino]pentyl}carbamoyl)amino]-N-methyl-2-phenylacetamide], in data set [1], the hemolysis at 1 h, 50 µg/ml was 3.13 ± 0.05%. For the same molecule, the hemolysis at 1 h, 100 µg/ml in data set [1] stood at 3.94 ± 0.05%. In addition, the hemolysis at 1 h, 200 µg/ml in data set [1] came to 4.04 ± 0.08%. The MBEC in data set [2] is over 100 µg/mL; in data set [3] it was over 100 µg/mL; in data set [4], over 100 µg/mL; in data set [5] it was 12.5 µg/mL; in data set [6] it was 12.5 µg/mL; in data set [9] it was over 100 µg/mL. Moreover, the MBEC in [12] and in data set [13] was over 100 µg/mL throughout. In addition, the minimal effective concentration in data set [7] is over 100 µg/mL; in data set [8], 50 µg/mL; in the data set with Candida kefyr ATCC 2512, over 100 µg/mL; in [10], over 100 µg/mL; in data set [11], 50 µg/mL. In addition, the “LP inhibition (%) ± SD” value in data set [14] is recorded as 92 ± 3.2%. The “DPPH-reducing ability 20 min” value in data set [15] was 7^b %. For the same molecule, in data set [15], the “DPPH-reducing ability 60 min” value is on record as 5^b %.

`COc1cc(NC(C)CCCNC(=O)NC(C(=O)NC(c2ccccc2)c2ccc(Cl)cc2)c2ccc(Cl)cc2)c2ncccc2c1` (centres unmarked) [Compound 5e, 2–(4-chlorophenyl)-N-[(4-chlorophenyl)(phenyl)methyl]-2-[({4-[(6-methoxyquinolin-8-yl)amino]pentyl}carbamoyl)amino]acetamide]: the hemolysis at 1 h, 50 µg/ml in data set [1] is 2.78 ± 0.04%. In addition, the hemolysis at 1 h, 100 µg/ml in data set [1] turned out to be 3.23 ± 0.05%. Moreover, in [1], the hemolysis at 1 h, 200 µg/ml came to 3.7 ± 0.08%. For the same molecule, the MBEC is over 100 µg/mL in data set [2]; over 100 µg/mL in data set [3]; over 100 µg/mL in data set [4]; 50 µg/mL in [5]; 50 µg/mL in data set [6]; over 100 µg/mL in [9]. Moreover, the MBEC in [12] and in data set [13] was over 100 µg/mL throughout. The minimal effective concentration in data set [7] is over 100 µg/mL; in data set [8] it was 25 µg/mL; in the data set with Candida kefyr ATCC 2512, 6.25 µg/mL; in data set [10], over 100 µg/mL; in data set [11], 25 µg/mL. Besides, in data set [14], the “LP inhibition (%) ± SD” value came out at 80 ± 2.7%. Further, the “DPPH-reducing ability 20 min” value in data set [15] was 1^b %. Besides, in data set [15], the “DPPH-reducing ability 60 min” value is recorded as 1^b %.
